Experimental data reported in article PMC12040169 (PLOS Biology, 2025).

Assay: in vitro
Conditions: human, hela cells, % viability

Row | SMILES | viability at 28.5 h, 10 µM [%]
1 | COc1ccccc1N(CC(O)CN1C(C)CCCC1C)S(=O)(=O)c1ccccc1 (stereo not shown) [CBK265585] | 94.4
2 | CCOC(=O)COc1cccc(/C=C2/SC(=S)N(c3cccc(C(=O)O)c3)C2=O)c1 [CBK265589] | 98.3
3 | O=C(Nc1ccc(S(=O)(=O)NCCc2ccccc2)cc1)c1ccc2c(c1)OCO2 [CBK265591] | 108
4 | O=C(O)CCCC(=O)Nc1cc([N+](=O)[O-])ccc1O [CBK265592] | 102
5 | O=C(/C=C/c1ccccc1[N+](=O)[O-])NCCN1CCOCC1 [CBK265596] | 97.8
6 | Cc1cccc(/N=C2\NC(=O)C(Cc3ccc(C)c(Cl)c3)S2)n1 (stereo not shown) [CBK265597] | 106
7 | COc1ccccc1C1(CCNCc2ccc3c(c2)OCO3)CCOC(C)(C)C1 (stereo not shown) [CBK265599G] | 92.3
8 | O=C(CC(CC(=O)c1ccc(Cl)cc1)c1ccccc1C(=O)O)c1ccc(Cl)cc1 [CBK265604] | 93.6
9 | CCN1C(=O)S/C(=C/c2ccc(OCc3cccc(C(=O)O)c3)cc2)C1=O [CBK265605] | 106
10 | Cc1ccc(NC(=O)CSc2nc3ccccc3c(=O)n2Cc2ccco2)cc1Cl [CBK265606] | 102
11 | CC(C)C(C(=O)Nc1ccc(S(=O)(=O)N2CCOCC2)cc1)N1C(=O)c2ccccc2C1=O (stereo not shown) [CBK265607] | 97.6
12 | COc1ccc(-c2nn(-c3ccccc3)cc2/C=C2\SC(N3CC(C)OC(C)C3)=NC2=O)cc1F (stereo not shown) [CBK265613] | 100
13 | COC(=O)c1c(NC(=O)CC2Nc3ccccc3NC2=O)sc2c1CCC(C(C)(C)C)C2 (stereo not shown) [CBK265614] | 98.1
14 | O=C(O)c1ccc(N2N=C(c3ccccc3)/C(=C\c3cccc([N+](=O)[O-])c3O)C2=O)cc1 [CBK265615] | 102
15 | O=C(/C=C/c1ccc(C(=O)Nc2cccnc2)cc1)Nc1cccnc1 [CBK265617] | 66.7
16 | COc1ccc(-n2c(SCCc3ccccc3)nnc2-c2ccncc2)cc1 [CBK265618] | 85.3
17 | CCOC(=O)/C(C(=O)c1ccccc1)=C(/N)NCCO [CBK265621] | 110
18 | CCOc1cc(/C=C2\S/C(=N/c3ccc(S(N)(=O)=O)cc3)NC2=O)c(Br)cc1O [CBK265622] | 95
19 | CC(=O)c1ccc(NC(=O)CC2SC(=N)NC2=O)cc1 (stereo not shown) [CBK265625] | 83.9
20 | O=S(=O)(c1cccc2nonc12)N1CCCCCC1 [CBK265627] | 102
21 | CC(C)(Oc1ccc(Cl)cc1)C(=O)NCCc1ccc(S(N)(=O)=O)cc1 [CBK265628] | 107
22 | Cc1cc(NS(=O)(=O)c2ccc(NC(=O)c3ccc(C(C)(C)C)c(Br)c3)cc2)no1 [CBK265629] | 119
23 | COc1ccc(-n2c(SCC(=O)O)nnc2-c2cccs2)cc1 [CBK265636] | 118
24 | Cc1cc2ccccc2n2c(SCCC(=O)Nc3ccc(C(C)(C)C)cc3)nnc12 [CBK265639] | 106
25 | CN(C)c1ccc(NC(=O)CC2S/C(=N/c3ccccc3)N(c3ccccc3)C2=O)cc1 (stereo not shown) [CBK265644] | 92.7
26 | CC(CC(=O)O)CC(=O)Nc1cccc(C(=O)O)c1 (stereo not shown) [CBK265651] | 99.1
27 | O=c1cc(-c2cccc([N+](=O)[O-])c2)c2ccc(OCc3cc4c(cc3Cl)OCO4)cc2o1 [CBK265652] | 92.1

Row | SMILES | viability at 28.5 h, 10 µM [%]
28 | CC1CCN(S(=O)(=O)c2ccc(NC(=O)c3cccc(NC(=O)C(C)C)c3)cc2)CC1 [CBK265653] | 88
29 | O=C(NCCNC(=O)c1ccccn1)c1ccccn1 [CBK265654] | 101
30 | Ic1ccc2ncnc(NCCN3CCOCC3)c2c1 [CBK265655] | 108
31 | CCOC(=O)c1ccc(/N=C2/NC(=O)/C(=C\c3ccccc3OCC(=O)O)S2)cc1 [CBK265658] | 101
32 | O=C(O)COc1ccc(N2C(=O)c3ccc(-c4nc5ccccc5c(=O)o4)cc3C2=O)cc1 [CBK265659] | 106
33 | Cc1cccc(N2NC(=O)/C(=C/c3cccn3-c3ccc(S(N)(=O)=O)cc3)C2=O)c1 [CBK265660] | 93.9
34 | O=C(COc1ccccc1Cl)NC(=S)Nc1cccc(C(=O)O)c1 [CBK265662] | 91.4
35 | COc1cc(/C=C2\C(=O)N(c3ccc(NC(C)=O)cc3)N=C2c2ccccc2)ccc1O [CBK265664] | 87.5
36 | CCc1ccccc1OCC(=O)Nc1ccc([N+](=O)[O-])cc1OC [CBK265665] | 97.1
37 | Cc1cc2ccccc2n2c(SCC(=O)NCc3ccco3)nnc12 [CBK265666] | 107
38 | C#CCOc1ccc(/C=C2/SC(=S)N(CCC(=O)O)C2=O)cc1 [CBK265667] | 94.1
39 | CC1CCCCN1CCNC(=O)c1ccc(Cn2c(=S)[nH]c3ccccc3c2=O)cc1 (stereo not shown) [CBK265674] | 96
40 | COC(=O)c1c(NC(=O)C(C)Oc2cc(C)c(Cl)c(C)c2)sc(C(C)=O)c1C (stereo not shown) [CBK265678] | 94.1
41 | Cc1ccccc1/N=C1/NC(=O)/C(=C/c2cccn2-c2ccc(S(N)(=O)=O)cc2)S1 [CBK265681] | 107
42 | CCOC(=O)c1c(NC(=O)CSc2nnc3ccccn23)sc2c1CCCCC2 [CBK265685] | 101
43 | Cc1nnc(SCCCCSc2nnc(C)n2N)n1N [CBK265686] | 88.5
44 | Cc1cc2ccccc2n2c(SCC(=O)NCC3CCCO3)nnc12 (stereo not shown) [CBK265688] | 103
45 | COc1ccc(CNc2nccs2)c(O)c1 [CBK265690] | 86.2
46 | O=S(=O)(NCc1ccccc1)c1cccc2nonc12 [CBK265692] | 90.4
47 | CC(=O)c1ccc(NC(=O)C2C3C=CC(C3=C(c3ccccc3)c3ccccc3)C2C(=O)O)cc1 (stereo not shown) [CBK265696] | 98.4
48 | COc1cc(/C=C2\C(=O)N(c3ccccc3Cl)N=C2c2ccccc2)ccc1O [CBK265698] | 82.8
49 | CCN(CC)CC(O)Cn1c(-c2cccc([N+](=O)[O-])c2)nc(=S)c2c1CCCC2 (stereo not shown) [CBK265700] | 97.1
50 | O=C(CSc1nc2ccccc2[nH]1)Nc1cccc(NC(=O)C23CC4CC(CC(C4)C2)C3)c1 [CBK265702] | 89.8
51 | O=C(COc1ccccc1C1CC(=O)Nc2ccc3ccccc3c21)Nc1ccccc1 (stereo not shown) [CBK265704] | 97.3
52 | COc1cc(/C=C2\S/C(=N/c3ccc(S(N)(=O)=O)cc3)NC2=O)c(Br)cc1O [CBK265711] | 96.9
53 | O=C(O)Cn1c2ccc(Cl)cc2c2nc3ccccc3nc21 [CBK265712] | 97.8
54 | O=C(C1CCN(S(=O)(=O)c2ccccc2)CC1)N1CCN(Cc2ccc3c(c2)OCO3)CC1 [CBK265713] | 104

Row | SMILES | viability at 28.5 h, 10 µM [%]
55 | Cc1nnc(SCc2cccc(Oc3ccccc3)c2)n1N [CBK265714] | 104
56 | CN(CC(=O)O)C(=O)c1ccc(S(=O)(=O)N2CCCCC2)cc1 [CBK265715] | 112
57 | O=S(=O)(NC1CCCC1)c1cccc(-c2nnc(-c3ccccc3)o2)c1 [CBK265716] | 94.6
58 | COc1cc(C(c2c[nH]c3ccccc23)c2c[nH]c3ccccc23)ccc1OCC(=O)O [CBK265717] | 97.8
59 | O=C(OCc1ccc(Br)cc1)c1ccccc1S(=O)(=O)c1ccccc1[N+](=O)[O-] [CBK265718] | 92.2
60 | O=C(O)COc1ccc(Br)cc1C(c1c[nH]c2ccccc12)c1c[nH]c2ccccc12 [CBK265720] | 94.6
61 | CN(C)S(=O)(=O)c1ccc(Cl)c(C(=O)Nc2cccc([N+](=O)[O-])c2)c1 [CBK265721] | 103
62 | O=C(O)COc1ccc(Br)cc1/C=C1\N=C(SCc2ccccc2)SC1=O [CBK265725] | 110
63 | O=C(O)c1cccc(-c2ccc(/C=C3\SC(=S)N(Cc4ccco4)C3=O)o2)c1 [CBK265726] | 98.3
64 | CN(C)S(=O)(=O)c1ccc(Cl)c(C(=O)Nc2ccc(C(=O)O)cc2)c1 [CBK265728] | 94.7
65 | Cc1ccc(N2C(=O)c3ccc(C(=O)OCc4ccc([N+](=O)[O-])cc4)cc3C2=O)cc1Cl [CBK265730] | 103
66 | CCN(CC)S(=O)(=O)c1cc(C(=O)Nc2ccccc2C(=O)O)c(Cl)cc1Cl [CBK265731] | 125
67 | CC(=O)c1cccc(NC(=O)c2cc(S(=O)(=O)N(C)C)ccc2Cl)c1 [CBK265732] | 111
68 | O=C(O)c1ccc(Cl)c(S(=O)(=O)N2CCCC2C(=O)O)c1 (stereo not shown) [CBK265733] | 103
69 | O=C(c1ccccc1Br)N1CCN(c2ccc([N+](=O)[O-])c(NCc3cccnc3)c2)CC1 [CBK265735] | 100
70 | O=C(O)CCSc1nnc2[nH]c3ccccc3n12 [CBK265736] | 108
71 | CCn1nccc1C(=O)Nc1nc2ccccc2n1CCN1CCCCC1 [CBK265737] | 89.1
72 | Cc1ccc(C)c(C(=O)C2=C(O)C(=O)N(CCN(C)C)C2c2ccc(O)cc2)c1 (stereo not shown) [CBK265740] | 102
73 | O=C(NC(NC(=O)c1ccccc1F)c1ccc2c(c1)OCO2)c1ccccc1F [CBK265742] | 106
74 | COc1ccc(N2CCN(CC(=O)Nc3ccc(Cl)cc3C(=O)c3ccccc3)CC2)cc1 [CBK265743] | 90.7
75 | NC(=O)c1c(NC(=O)c2ccc(-c3ccccc3)cc2)sc2c1CCC2 [CBK265747] | 91.3
76 | O=C(Nc1ccc(Cl)cc1C(=O)NCCN1CCOCC1)c1ccc(Cl)cc1Cl [CBK265749] | 105
77 | O=C(c1ccc(COc2ccccc2Cl)o1)N1CCN(Cc2ccc3c(c2)OCO3)CC1 [CBK265750C] | 87.3
78 | CCOC(=O)c1cnc2ccc(F)cc2c1NCCN(C)C [CBK265751] | 91.7
79 | Sc1nncn1NCc1cc(Cl)ccc1OCc1ccccc1 [CBK265752] | 88.9

Same assay, conditions: human, hela cells, % viability, bulk resorufin, single well

Row | SMILES | viability at 28.5 h, 10 µM [%]
80 | O=C1NC(=S)N(Cc2ccco2)C(=O)/C1=C\c1ccc(-c2ccc(Cl)c(C(=O)O)c2)o1 [CBK265584] | 90.1
81 | Cc1cc(/C=C2\C(=O)NC(=O)N(Cc3ccccc3Cl)C2=O)c(C)n1-c1ccc(C(=O)O)cc1 [CBK265602] | 84.9
82 | CCN1C(=O)/C(=C/Nc2ccc(S(N)(=O)=O)cc2)C(=O)NC1=S [CBK265687] | 112
